ChEMBL document CHEMBL4665869, “New thiazolopyrimidine as anticancer agents: Synthesis, biological evaluation, DNA binding, molecular modeling and ADMET study” (Bioorg Med Chem Lett, 2020)
Values after ≈ are worked out from the molar mass of the structure shown.

Tests used:
MDA-MB-468 = test: Growth inhibition of human MDA-MB-468 cells at 10 uM relative to control; assay type: functional; settings: read-out: GI
MCF7 = test: Growth inhibition of human MCF7 cells at 10 uM relative to control; assay type: functional; settings: read-out: GI
UACC-257 = test: Growth inhibition of human UACC-257 cells at 10 uM relative to control; assay type: functional; settings: read-out: GI
NCI-H226 = test: Growth inhibition of human NCI-H226 cells at 10 uM relative to control; assay type: functional; settings: read-out: GI
CAKI-1 = test: Growth inhibition of human CAKI-1 cells at 10 uM relative to control; assay type: functional; settings: read-out: GI
MDA-MB-231 = test: Growth inhibition of human MDA-MB-231 cells at 10 uM relative to control; assay type: functional; settings: read-out: GI
786-0 = test: Growth inhibition of human 786-0 cells at 10 uM relative to control; assay type: functional; settings: read-out: GI
NCI-H322M = test: Growth inhibition of human NCI-H322M cells at 10 uM relative to control; assay type: functional; settings: read-out: GI
A549 = test: Growth inhibition of human A549 cells at 10 uM relative to control; assay type: functional; settings: read-out: GI
LOX IMVI = test: Growth inhibition of human LOX IMVI cells at 10 uM relative to control; assay type: functional; settings: read-out: GI
RPMI-8226 = test: Growth inhibition of human RPMI-8226 cells at 10 uM relative to control; assay type: functional; settings: read-out: GI
OVCAR-4 = test: Growth inhibition of human OVCAR-4 cells at 10 uM relative to control; assay type: functional; settings: read-out: GI
SNB-75 = test: Growth inhibition of human SNB-75 cells at 10 uM relative to control; assay type: functional; settings: read-out: GI
HCT-116 = test: Growth inhibition of human HCT-116 cells at 10 uM relative to control; assay type: functional; settings: read-out: GI
SK-MEL-5 = test: Growth inhibition of human SK-MEL-5 cells at 10 uM relative to control; assay type: functional; settings: read-out: GI
T47D = test: Growth inhibition of human T47D cells at 10 uM relative to control; assay type: functional; settings: read-out: GI
PC-3 = test: Growth inhibition of human PC-3 cells at 10 uM relative to control; assay type: functional; settings: read-out: GI
CCRF-CEM = test: Growth inhibition of human CCRF-CEM cells at 10 uM relative to control; assay type: functional; settings: read-out: GI
SNB-19 = test: Growth inhibition of human SNB-19 cells at 10 uM relative to control; assay type: functional; settings: read-out: GI
BT-549 = test: Growth inhibition of human BT-549 cells at 10 uM relative to control; assay type: functional; settings: read-out: GI
KM12 = test: Growth inhibition of human KM12 cells at 10 uM relative to control; assay type: functional; settings: read-out: GI
OVCAR-5 = test: Growth inhibition of human OVCAR-5 cells at 10 uM relative to control; assay type: functional; settings: read-out: GI
NCI-H522 = test: Growth inhibition of human NCI-H522 cells at 10 uM relative to control; assay type: functional; settings: read-out: GI
SF-295 = test: Growth inhibition of human SF-295 cells at 10 uM relative to control; assay type: functional; settings: read-out: GI
SN12C = test: Growth inhibition of human SN12C cells at 10 uM relative to control; assay type: functional; settings: read-out: GI
HOP-62 = test: Growth inhibition of human HOP-62 cells at 10 uM relative to control; assay type: functional; settings: read-out: GI
UO-31 = test: Growth inhibition of human UO-31 cells at 10 uM relative to control; assay type: functional; settings: read-out: GI
DU-145 = test: Growth inhibition of human DU-145 cells at 10 uM relative to control; assay type: functional; settings: read-out: GI
TK-10 = test: Growth inhibition of human TK-10 cells at 10 uM relative to control; assay type: functional; settings: read-out: GI
NCI-H460 = test: Growth inhibition of human NCI-H460 cells at 10 uM relative to control; assay type: functional; settings: read-out: GI
SF-539 = test: Growth inhibition of human SF-539 cells at 10 uM relative to control; assay type: functional; settings: read-out: GI
MDA-MB-435 = test: Growth inhibition of human MDA-MB-435 cells at 10 uM relative to control; assay type: functional; settings: read-out: GI
K562 = test: Growth inhibition of human K562 cells at 10 uM relative to control; assay type: functional; settings: read-out: GI
SW-620 = test: Growth inhibition of human SW-620 cells at 10 uM relative to control; assay type: functional; settings: read-out: GI
UACC-62 = test: Growth inhibition of human UACC-62 cells at 10 uM relative to control; assay type: functional; settings: read-out: GI
M14 = test: Growth inhibition of human M14 cells at 10 uM relative to control; assay type: functional; settings: read-out: GI
SK-OV-3 = test: Growth inhibition of human SK-OV-3 cells at 10 uM relative to control; assay type: functional; settings: read-out: GI
HCC 2998 = test: Growth inhibition of human HCC 2998 cells at 10 uM relative to control; assay type: functional; settings: read-out: GI
SR = test: Growth inhibition of human SR cells at 10 uM relative to control; assay type: functional; settings: read-out: GI
HCT-15 = test: Growth inhibition of human HCT-15 cells at 10 uM relative to control; assay type: functional; settings: read-out: GI
SK-MEL-2 = test: Growth inhibition of human SK-MEL-2 cells at 10 uM relative to control; assay type: functional; settings: read-out: GI
MOLT-4 = test: Growth inhibition of human MOLT-4 cells at 10 uM relative to control; assay type: functional; settings: read-out: GI
HL-60(TB) = test: Growth inhibition of human HL-60(TB) cells at 10 uM relative to control; assay type: functional; settings: read-out: GI
RXF 393 = test: Growth inhibition of human RXF 393 cells at 10 uM relative to control; assay type: functional; settings: read-out: GI
OVCAR-8 = test: Growth inhibition of human OVCAR-8 cells at 10 uM relative to control; assay type: functional; settings: read-out: GI
HOP-92 = test: Growth inhibition of human HOP-92 cells at 10 uM relative to control; assay type: functional; settings: read-out: GI
IGROV-1 = test: Growth inhibition of human IGROV-1 cells at 10 uM relative to control; assay type: functional; settings: read-out: GI
ACHN = test: Growth inhibition of human ACHN cells at 10 uM relative to control; assay type: functional; settings: read-out: GI
SF-268 = test: Growth inhibition of human SF-268 cells at 10 uM relative to control; assay type: functional; settings: read-out: GI
Malme-3M = test: Growth inhibition of human Malme-3M cells at 10 uM relative to control; assay type: functional; settings: read-out: GI
NCI/ADR-RES = test: Growth inhibition of human NCI/ADR-RES cells at 10 uM relative to control; assay type: functional; settings: read-out: GI
DNA = test: Displacement of methyl green from DNA (unknown origin) assessed as DNA intercalation after 24 hrs by colorimetric assay; assay type: nucleic-acid assay
Hs-578T = test: Growth inhibition of human Hs-578T cells at 10 uM relative to control; assay type: functional; settings: read-out: GI
SK-MEL-28 = test: Growth inhibition of human SK-MEL-28 cells at 10 uM relative to control; assay type: functional; settings: read-out: GI
A498 = test: Growth inhibition of human A498 cells at 10 uM relative to control; assay type: functional; settings: read-out: GI
COLO 205 = test: Growth inhibition of human COLO 205 cells at 10 uM relative to control; assay type: functional; settings: read-out: GI
U-251 = test: Growth inhibition of human U-251 cells at 10 uM relative to control; assay type: functional; settings: read-out: GI
HT-29 = test: Growth inhibition of human HT-29 cells at 10 uM relative to control; assay type: functional; settings: read-out: GI
NCI-H23 = test: Growth inhibition of human NCI-H23 cells at 10 uM relative to control; assay type: functional; settings: read-out: GI

Question: For `CCOC(=O)C1=CSC2=NC(/C=C/c3ccc(OC)c(OC)c3)=CC(c3ccc(OC)c(OC)c3)N12` (centres undefined), which inhibition of growth at 10 µM (MDA-MB-468) is on record?
Answer: < 10%

Question: And the inhibition of growth at 10 µM (MCF7)?
Answer: < 10%

Question: And the inhibition of growth at 10 µM (UACC-257)?
Answer: < 10%

Question: What about the inhibition of growth at 10 µM (NCI-H226) of the same compound?
Answer: < 10%

Question: What about the inhibition of growth at 10 µM (CAKI-1) of the same compound?
Answer: < 10%

Question: And the inhibition of growth at 10 µM (MDA-MB-231)?
Answer: < 10%

Question: What about the inhibition of growth at 10 µM (786-0) of the same compound?
Answer: < 10%

Question: What about the inhibition of growth at 10 µM (NCI-H322M) of the same compound?
Answer: < 10%

Question: And the inhibition of growth at 10 µM (A549)?
Answer: < 10%

Question: What about the inhibition of growth at 10 µM (LOX IMVI) of the same compound?
Answer: < 10%

Question: And the inhibition of growth at 10 µM (RPMI-8226)?
Answer: < 10%

Question: What about the inhibition of growth at 10 µM (OVCAR-4) of the same compound?
Answer: < 10%

Question: And the inhibition of growth at 10 µM (SNB-75)?
Answer: 25.3%

Question: What about the inhibition of growth at 10 µM (HCT-116) of the same compound?
Answer: < 10%

Question: And the inhibition of growth at 10 µM (SK-MEL-5)?
Answer: < 10%

Question: What about the inhibition of growth at 10 µM (T47D) of the same compound?
Answer: < 10%

Question: What about the inhibition of growth at 10 µM (PC-3) of the same compound?
Answer: 11.3%

Question: What about the inhibition of growth at 10 µM (CCRF-CEM) of the same compound?
Answer: < 10%

Question: And the inhibition of growth at 10 µM (SNB-19)?
Answer: < 10%

Question: And the inhibition of growth at 10 µM (BT-549)?
Answer: < 10%

Question: And the inhibition of growth at 10 µM (KM12)?
Answer: < 10%

Question: What about the inhibition of growth at 10 µM (OVCAR-5) of the same compound?
Answer: < 10%

Question: What about the inhibition of growth at 10 µM (NCI-H522) of the same compound?
Answer: 12%

Question: And the inhibition of growth at 10 µM (SF-295)?
Answer: < 10%

Question: What about the inhibition of growth at 10 µM (SN12C) of the same compound?
Answer: < 10%

Question: And the inhibition of growth at 10 µM (HOP-62)?
Answer: < 10%

Question: And the inhibition of growth at 10 µM (UO-31)?
Answer: 20.2%

Question: And the inhibition of growth at 10 µM (DU-145)?
Answer: < 10%

Question: And the inhibition of growth at 10 µM (TK-10)?
Answer: < 10%

Question: What about the inhibition of growth at 10 µM (NCI-H460) of the same compound?
Answer: < 10%

Question: And the inhibition of growth at 10 µM (SF-539)?
Answer: < 10%

Question: And the inhibition of growth at 10 µM (MDA-MB-435)?
Answer: < 10%

Question: And the inhibition of growth at 10 µM (K562)?
Answer: < 10%

Question: And the inhibition of growth at 10 µM (SW-620)?
Answer: < 10%

Question: And the inhibition of growth at 10 µM (UACC-62)?
Answer: < 10%

Question: What about the inhibition of growth at 10 µM (M14) of the same compound?
Answer: < 10%

Question: What about the inhibition of growth at 10 µM (SK-OV-3) of the same compound?
Answer: < 10%

Question: What about the inhibition of growth at 10 µM (HCC 2998) of the same compound?
Answer: < 10%

Question: What about the inhibition of growth at 10 µM (SR) of the same compound?
Answer: < 10%

Question: And the inhibition of growth at 10 µM (HCT-15)?
Answer: < 10%

Question: And the inhibition of growth at 10 µM (SK-MEL-2)?
Answer: < 10%

Question: What about the inhibition of growth at 10 µM (MOLT-4) of the same compound?
Answer: < 10%

Question: And the inhibition of growth at 10 µM (HL-60(TB))?
Answer: < 10%

Question: What about the inhibition of growth at 10 µM (RXF 393) of the same compound?
Answer: < 10%

Question: What about the inhibition of growth at 10 µM (OVCAR-8) of the same compound?
Answer: < 10%

Question: What about the inhibition of growth at 10 µM (HOP-92) of the same compound?
Answer: 39.5%

Question: What about the inhibition of growth at 10 µM (IGROV-1) of the same compound?
Answer: < 10%

Question: And the inhibition of growth at 10 µM (ACHN)?
Answer: 12.8%

Question: What about the inhibition of growth at 10 µM (SF-268) of the same compound?
Answer: < 10%

Question: And the inhibition of growth at 10 µM (Malme-3M)?
Answer: < 10%

Question: What about the inhibition of growth at 10 µM (NCI/ADR-RES) of the same compound?
Answer: < 10%

Question: And the IC50 (DNA)?
Answer: 29.86 µg/mL (≈ 58.7 µM)

Question: And the inhibition of growth at 10 µM (Hs-578T)?
Answer: < 10%

Question: And the inhibition of growth at 10 µM (SK-MEL-28)?
Answer: < 10%

Question: What about the inhibition of growth at 10 µM (A498) of the same compound?
Answer: < 10%

Question: And the inhibition of growth at 10 µM (COLO 205)?
Answer: < 10%

Question: What about the inhibition of growth at 10 µM (U-251) of the same compound?
Answer: < 10%

Question: And the inhibition of growth at 10 µM (HT-29)?
Answer: < 10%

Question: And the inhibition of growth at 10 µM (NCI-H23)?
Answer: < 10%
